{"source": "patent US20160264593A1", "about": "(priority 2013, published 2016)", "experiment": "Pharmacokinetic study of 153 (and metabolite endothal) in SD rats, iv and po; plasma, liver, brain", "assay_type": "in vivo", "conditions": "for endothal detectable in brain samples: after single iv 153 at 1.25 mg/kg, 1.25 mg/kg", "method": "The blood, liver and brain tissue samples were collected at predetermined times from rats. […] Compound were diluted shortly before use in 4% sodium bicarbonate for sterile injection (this is the standard pediatric solution of NaHCO3 with a pH of about 8.5).\nCompound 153 was freshly prepared by diluting the drugs shortly before use in 4% sodium bicarbonate for sterile injection (this is the standard pediatric solution of NaHCO3 with a pH of about 8.5). The final concentrations of 153 solutions were 0.25 mg/mL. The 153 solutions were administered via iv or po route at dose volume of 5 ml/kg according to the latest body weight. Compound 157 was freshly prepared by diluting the drugs shortly before use in 4% sodium bicarbonate for sterile injection (this is the standard pediatric solution of NaHCO3 with a pH of about 8.5). The final concentrations of […] solutions were 0.3 mg/mL. The 157 solutions were administered via iv or po route at dose volume of 5 ml/kg according to the latest body weight.\nTwelve (12) female SD rats per group were dosed by iv with 153 or 157. The rats were fasted overnight prior to dosing, with free access to water. Foods were withheld for 2 hours post-dose. Blood, liver and brain tissue samples in two animals each group were collected at each time point, within 10% of the scheduled time for each time point. Two extra animals were used for analytic method development.\nBlood (>0.3 mL) were collected via aorta abdominalis in anaesthetic animals into tubes containing heparin at 15 min, 1, 2, 6, 10 and 24 hours after iv administration. Liver and brain tissues were collected immediately after animal death. The liver and brain tissues were excised and rinsed with cold saline to avoid blood residual. Upon collection, each sample was placed on ice and the blood samples were subsequently centrifuged (4° C., 11000 rpm, 5 min) to separate plasma. The obtained plasma, liver and brain tissue samples were stored at −70° C. until LC-MS/MS analysis.\nTwo (2) female SD rats per group were dosed by po with 153 or 157. The rats were fasted overnight prior to dosing, with free access to water. Foods were withheld for 2 hours post-dose. Blood samples (>0.3 mL) were collected via aorta abdominalis in anaesthetic animals into tubes containing heparin at 30 min, 1, 2, 6, 10 and 24 hours after po administration.\nTo each sample, 20 μL IS-D (for blank samples, 20 μL acetonitrile:water (1:1) was added) and 300 μl acetonitrile was added. The sample mixture was vortexed for approximately 3 min. After centrifugation at 10000 rpm for 5 min at 4° C., 100 μL of the upper layer was transferred to a new tube and added 200 μL 0.4% formic acid in water (pH 6.0). The mixture was vortexed for approximately 3 min before injected onto the LC/MS/MS system for analysis.\nOn the day of the assay, the frozen liver and brain samples were thawed unassisted at room temperature. An about 200 mg weighed sample of each thawed tissue was placed into a plastic tube with water (0.6 mL) to facilitate homogenization. Tissue processing was conducted using a homogenizer for approximately 1 min, 200 μl homogenate was transferred into a fresh Eppendorf tube. To each tube, 50 μL IS-D was added and mixed. Then 600 μl acetonitrile was added and the sample mixture was vortexed for approximately 3 min. After centrifugation at 10000 rpm for 5 min at 4° C., 400 μL of the upper layer was transferred to a new tube and evaporate the supernatant to dryness at 35° C. Reconstitute the residue with 200 μL of 0.4% formic acid in water (pH6.0), and vortex for 3 min, submit for LC-MS/MS analysis.\nFrozen unknown plasma samples were completely thawed at room temperature and vortexed thoroughly. With a pipette, 50 μL of plasma was transferred into a 2.0 mL Eppendorf tube. 50 μL of 0.1N HCl and 800 μL ethyl acetate were added into each sample. The sample mixture was vortexed for approximately 3 min."}
{"smiles": "O=C(O)C1C2CCC(O2)C1C(=O)O", "note": "(stereo not drawn) [Endothal, 7-oxabicyclo[2.2.1]heptane-2,3-dicarboxylic acid]", "values": [{"measurement": "Endothal plasma concentration", "setting": "after iv 153, 10 hr, Rat 2", "result": "BLQ"}, {"measurement": "Endothal plasma concentration", "setting": "after iv 153, 24 hr, Rat 1", "result": "BLQ"}, {"measurement": "Endothal plasma concentration", "setting": "after iv 153, 24 hr, Rat 2", "result": "BLQ"}, {"measurement": "Endothal plasma concentration", "setting": "after po 153, 10 hr, Rat 1", "result": "BLQ"}, {"measurement": "endothal detectable in brain samples", "result": "undetectable"}, {"measurement": "endothal detectable in brain samples", "setting": "listed as endothal", "result": "not detectable"}]}
